Assay: Human liver microsomal stability
Settings: Corning ultra pool human liver microsome (HLM), NADPH, 1 µM, 0.5 mg/ml protein

## COc1ccc2c(c1)[C@]13CCCC[C@@H]1[C@H](C2)N(C)CC3 [Dextromethorphan]
  Microsomal stability in human t1/2: 40.0 min
